{
  "source": "patent US20110250294A1",
  "about": "“COMBINATIONS OF PRESERVATIVE COMPOSITIONS FOR OPHTHALMIC FORMULATIONS” (ALLERGAN, INC., priority 2010, published 2011)",
  "system": "S. aureus, P. aeruginosa, c. albicans, E. coli and/or A. niger",
  "test": "abbreviated preservative efficacy test against Ph Eur-A (EP-A) and Ph Eur-B (EP-B) criteria",
  "format": "cell-based",
  "conditions": "20 ppm BAK alone in ophthalmic solution",
  "experimental": "Each of these formulations is tested by performing an abbreviated preservative efficacy test using test organisms S. aureus, P. aeruginosa, c. albicans, E. coli and/or A. niger. The formulations are tested against United States Preservative Efficacy Test (USP), European Efficacy Test-A (EP-A) and European Efficacy Test-B (EP-B) criteria as indicated. Ten (10) ml of each formulation is challenged with approximately 10^5 cfu/ml of test organism. At appropriate time intervals, the amount of bacterial and fungal survivors are assayed using Dey Engley broth (DE) as the neutralizer media. DE, along with filtration, is sufficient at neutralizing the antimicrobial agents in the compositions. One (1) ml of each sample is diluted into nine (9) ml of DE. One (1) ml of the 1:10 dilution is filtered through a 0.45 µm filter and washed with 100 ml of a saline/polysorbate 80 solution. After washing the filtrate a second time with 100 ml of saline/polysorbate 80 solution, the filtrate is placed onto a TSA plate for bacteria and SAB for fungi.",
  "data": [
    {"substance": "benzalkonium chloride [BAK]", "values": [
      {"measurement": "Ph Eur-B & A criteria (pass/fail)", "result": "failed"}
    ]}
  ]
}
